Test results from US20140106968A1, “SUBSTITUTED 1,2,4-TRIAZINE-3,5-DIONES AS HERBICIDES” (E I Du Pont De Nemours and Company, priority 2012, published 2014).

Key:
Format in all cases: in vivo
[1] = system: large (Lg) crabgrass (Digitaria sanguinalis); assay: Test A greenhouse pre-/postemergence herbicide test, large crabgrass; settings: 0 to 100 scale, 0 no effect, 100 complete control, approx. 10 days
Excerpt: (§1) Seeds of plant species selected from barnyardgrass (Echinochloa crus-galli), large (Lg) crabgrass (Digitaria sanguinalis), giant foxtail (Setaria faberii), morningglory (Ipomoea spp.), pigweed (redroot pigweed, Amaranthus retroflexus), velvetleaf (Abutilon theophrasti), winter wheat (Triticum aestivum), and corn (Zea mays) were planted into a blend of loam soil and sand and treated preemergence with a directed soil spray using test chemicals formulated in a non-phytotoxic solvent mixture which included a surfactant. At the same time these species were also treated with postemergence applications of test compounds formulated in the same manner. Plants ranged in height from 2 to 10 cm and were in the one- to two-leaf stage for the postemergence treatment. Treated plants and untreated controls were maintained in a greenhouse for approximately 10 days, after which time all treated plants were visually compared to untreated controls and visually evaluated for injury. Plant response ratings, summarized in Table A, are based on a 0 to 100 scale where 0 is no effect and 100 is complete control. A dash (-) response means no test result.

[2] = system: barnyardgrass (Echinochloa crus-galli); assay: Test B flooded paddy test, barnyardgrass; settings: scale of 0 to 100, 0 no effect, 100 complete control, 13 to 15 days
Method: (§2) Plant species in the flooded paddy test selected from rice (Oryza sativa), small-flower umbrella sedge (Cyperus difformis), duck salad (Heteranthera limosa), and barnyardgrass (Echinochloa crus-galli) were grown to the 2-leaf stage for testing. At time of treatment, test pots were flooded to 3 cm above the soil surface, treated by application of test compounds directly to the paddy water, and then maintained at that water depth for the duration of the test. Treated plants and controls were maintained in a greenhouse for 13 to 15 days, after which time all species were visually compared to controls and visually evaluated. Plant response ratings, summarized in Table B, are based on a scale of 0 to 100 where 0 is no effect and 100 is complete control. A dash (-) response means no test result.

[3] = system: barnyardgrass (Echinochloa crus-galli); assay: Test A greenhouse pre-/postemergence herbicide test, barnyardgrass; settings: 0 to 100 scale, 0 no effect, 100 complete control, approx. 10 days
Excerpt: as §1

[4] = system: giant foxtail (Setaria faberii); assay: Test A greenhouse pre-/postemergence herbicide test, giant foxtail; settings: 0 to 100 scale, 0 no effect, 100 complete control, approx. 10 days
Excerpt: as §1

[5] = system: velvetleaf (Abutilon theophrasti); assay: Test A greenhouse pre-/postemergence herbicide test, velvetleaf; settings: 0 to 100 scale, 0 no effect, 100 complete control, approx. 10 days
Excerpt: as §1

rice (Oryza sativa) = assay: Test B flooded paddy test, rice; settings: scale of 0 to 100, 0 no effect, 100 complete control, 13 to 15 days
Method: as §2

corn (Zea mays) = assay: Test A greenhouse pre-/postemergence herbicide test, corn; settings: 0 to 100 scale, 0 no effect, 100 complete control, approx. 10 days
Excerpt: as §1

[6] = system: pigweed (redroot pigweed, Amaranthus retroflexus); assay: Test A greenhouse pre-/postemergence herbicide test, pigweed; settings: 0 to 100 scale, 0 no effect, 100 complete control, approx. 10 days
Excerpt: as §1

[7] = system: winter wheat (Triticum aestivum); assay: Test A greenhouse pre-/postemergence herbicide test, winter wheat; settings: 0 to 100 scale, 0 no effect, 100 complete control, approx. 10 days
Excerpt: as §1

[8] = system: small-flower umbrella sedge (Cyperus difformis); assay: Test B flooded paddy test, small-flower umbrella sedge; settings: scale of 0 to 100, 0 no effect, 100 complete control, 13 to 15 days
Method: as §2

[9] = system: morningglory (Ipomoea spp.); assay: Test A greenhouse pre-/postemergence herbicide test, morningglory; settings: 0 to 100 scale, 0 no effect, 100 complete control, approx. 10 days
Excerpt: as §1

[10] = system: duck salad (Heteranthera limosa); assay: Test B flooded paddy test, duck salad; settings: scale of 0 to 100, 0 no effect, 100 complete control, 13 to 15 days
Method: as §2

Cn1nc(C(=O)C2=C(O)CCCC2=O)c(=O)n(CCS(=O)(=O)CC2CC2)c1=O [Compound 3, 4-[2-[(cyclopropylmethyl)sulfonyl]ethyl]-6-[(2-hydroxy-6-oxo-1-cyclohexen-1-yl)carbonyl]-2-methyl-1,2,4-triazine-3,5(2H,4H)-dione]
90: Plant response rating, Crabgrass, Large ([1]; 125 g ai/ha Postemergence) | Plant response rating, Barnyardgrass ([3]; 125 g ai/ha Postemergence)
20: Plant response rating, Barnyardgrass ([2]; 250 g ai/ha Flood) | Plant response rating, Barnyardgrass ([3]; 31 g ai/ha Postemergence) | Plant response rating, Pigweed ([6]; 31 g ai/ha Preemergence)
75: Plant response rating, Sedge, Umbrella ([8]; 250 g ai/ha Flood)
30: Plant response rating, Crabgrass, Large ([1]; 31 g ai/ha Postemergence) | Plant response rating, Velvetleaf ([5]; 125 g ai/ha Preemergence) | Plant response rating, Rice (rice (Oryza sativa); 250 g ai/ha Flood) | Plant response rating, Wheat ([7]; 125 g ai/ha Postemergence)
85: Plant response rating, Ducksalad ([10]; 250 g ai/ha Flood)
0: Plant response rating, Barnyardgrass ([2]; 31 g ai/ha Flood) | Plant response rating, Barnyardgrass ([2]; 62 g ai/ha Flood) | Plant response rating, Barnyardgrass ([2]; 125 g ai/ha Flood) | Plant response rating, Barnyardgrass ([3]; 31 g ai/ha Preemergence) | Plant response rating, Foxtail, Giant ([4]; 31 g ai/ha Postemergence) | Plant response rating, Foxtail, Giant ([4]; 31 g ai/ha Preemergence) | Plant response rating, Foxtail, Giant ([4]; 125 g ai/ha Preemergence) | Plant response rating, Velvetleaf ([5]; 31 g ai/ha Preemergence) | Plant response rating, Rice (rice (Oryza sativa); 31 g ai/ha Flood) | Plant response rating, Rice (rice (Oryza sativa); 62 g ai/ha Flood) | Plant response rating, Rice (rice (Oryza sativa); 125 g ai/ha Flood) | Plant response rating, Corn (corn (Zea mays); 31 g ai/ha Postemergence) | Plant response rating, Corn (corn (Zea mays); 31 g ai/ha Preemergence) | Plant response rating, Corn (corn (Zea mays); 125 g ai/ha Postemergence) | Plant response rating, Corn (corn (Zea mays); 125 g ai/ha Preemergence) | Plant response rating, Wheat ([7]; 31 g ai/ha Postemergence) | Plant response rating, Wheat ([7]; 31 g ai/ha Preemergence) | Plant response rating, Sedge, Umbrella ([8]; 31 g ai/ha Flood) | Plant response rating, Sedge, Umbrella ([8]; 62 g ai/ha Flood) | Plant response rating, Ducksalad ([10]; 31 g ai/ha Flood) | Plant response rating, Ducksalad ([10]; 62 g ai/ha Flood) | Plant response rating, Ducksalad ([10]; 125 g ai/ha Flood)
10: Plant response rating, Crabgrass, Large ([1]; 31 g ai/ha Preemergence) | Plant response rating, Wheat ([7]; 125 g ai/ha Preemergence) | Plant response rating, Morningglory ([9]; 125 g ai/ha Preemergence)
100: Plant response rating, Velvetleaf ([5]; 31 g ai/ha Postemergence) | Plant response rating, Velvetleaf ([5]; 125 g ai/ha Postemergence) | Plant response rating, Pigweed ([6]; 125 g ai/ha Postemergence) | Plant response rating, Pigweed ([6]; 125 g ai/ha Preemergence)
60: Plant response rating, Morningglory ([9]; 31 g ai/ha Postemergence) | Plant response rating, Morningglory ([9]; 125 g ai/ha Postemergence)
50: Plant response rating, Sedge, Umbrella ([8]; 125 g ai/ha Flood)
40: Plant response rating, Crabgrass, Large ([1]; 125 g ai/ha Preemergence) | Plant response rating, Barnyardgrass ([3]; 125 g ai/ha Preemergence) | Plant response rating, Foxtail, Giant ([4]; 125 g ai/ha Postemergence) | Plant response rating, Pigweed ([6]; 31 g ai/ha Postemergence)

Cn1nc(C(=O)C2=C(O)CCCC2=O)c(=O)n(CCSCC2CC2)c1=O [Compound 4, 4-[2-[(cyclopropylmethyl)thio]ethyl]-6-[(2-hydroxy-6-oxo-1-cyclohexen-1-yl)carbonyl]-2-methyl-1,2,4-triazine-3,5(2H,4H)-dione]
90: Plant response rating, Velvetleaf ([5]; 125 g ai/ha Postemergence)
70: Plant response rating, Velvetleaf ([5]; 31 g ai/ha Postemergence)
60: Plant response rating, Rice (rice (Oryza sativa); 250 g ai/ha Flood)
15: Plant response rating, Barnyardgrass ([2]; 250 g ai/ha Flood) | Plant response rating, Rice (rice (Oryza sativa); 125 g ai/ha Flood)
65: Plant response rating, Sedge, Umbrella ([8]; 250 g ai/ha Flood) | Plant response rating, Ducksalad ([10]; 250 g ai/ha Flood)
10: Plant response rating, Crabgrass, Large ([1]; 125 g ai/ha Postemergence) | Plant response rating, Barnyardgrass ([3]; 125 g ai/ha Postemergence) | Plant response rating, Pigweed ([6]; 31 g ai/ha Postemergence) | Plant response rating, Wheat ([7]; 125 g ai/ha Postemergence) | Plant response rating, Morningglory ([9]; 31 g ai/ha Postemergence)
0: Plant response rating, Crabgrass, Large ([1]; 31 g ai/ha Postemergence) | Plant response rating, Crabgrass, Large ([1]; 31 g ai/ha Preemergence) | Plant response rating, Crabgrass, Large ([1]; 125 g ai/ha Preemergence) | Plant response rating, Barnyardgrass ([2]; 31 g ai/ha Flood) | Plant response rating, Barnyardgrass ([2]; 62 g ai/ha Flood) | Plant response rating, Barnyardgrass ([2]; 125 g ai/ha Flood) | Plant response rating, Barnyardgrass ([3]; 31 g ai/ha Postemergence) | Plant response rating, Barnyardgrass ([3]; 31 g ai/ha Preemergence) | Plant response rating, Barnyardgrass ([3]; 125 g ai/ha Preemergence) | Plant response rating, Foxtail, Giant ([4]; 31 g ai/ha Postemergence) | Plant response rating, Foxtail, Giant ([4]; 31 g ai/ha Preemergence) | Plant response rating, Foxtail, Giant ([4]; 125 g ai/ha Postemergence) | Plant response rating, Foxtail, Giant ([4]; 125 g ai/ha Preemergence) | Plant response rating, Velvetleaf ([5]; 31 g ai/ha Preemergence) | Plant response rating, Velvetleaf ([5]; 125 g ai/ha Preemergence) | Plant response rating, Rice (rice (Oryza sativa); 31 g ai/ha Flood) | Plant response rating, Rice (rice (Oryza sativa); 62 g ai/ha Flood) | Plant response rating, Corn (corn (Zea mays); 31 g ai/ha Postemergence) | Plant response rating, Corn (corn (Zea mays); 31 g ai/ha Preemergence) | Plant response rating, Corn (corn (Zea mays); 125 g ai/ha Postemergence) | Plant response rating, Corn (corn (Zea mays); 125 g ai/ha Preemergence) | Plant response rating, Pigweed ([6]; 31 g ai/ha Preemergence) | Plant response rating, Pigweed ([6]; 125 g ai/ha Preemergence) | Plant response rating, Wheat ([7]; 31 g ai/ha Postemergence) | Plant response rating, Wheat ([7]; 31 g ai/ha Preemergence) | Plant response rating, Wheat ([7]; 125 g ai/ha Preemergence) | Plant response rating, Sedge, Umbrella ([8]; 31 g ai/ha Flood) | Plant response rating, Sedge, Umbrella ([8]; 62 g ai/ha Flood) | Plant response rating, Morningglory ([9]; 31 g ai/ha Preemergence) | Plant response rating, Morningglory ([9]; 125 g ai/ha Preemergence) | Plant response rating, Ducksalad ([10]; 31 g ai/ha Flood) | Plant response rating, Ducksalad ([10]; 62 g ai/ha Flood)
50: Plant response rating, Pigweed ([6]; 125 g ai/ha Postemergence) | Plant response rating, Sedge, Umbrella ([8]; 125 g ai/ha Flood) | Plant response rating, Ducksalad ([10]; 125 g ai/ha Flood)
100: Plant response rating, Morningglory ([9]; 125 g ai/ha Postemergence)
